Measurements from patent US20260207504A1, “STABILIZATION OF LIPID NANOPARTICLE FORMULATIONS” (Eli Lilly and Company, priority 2022, published 2026).

Assay: Lipid chemical stability in PBS or histidine buffer solution (LC-MS)
Format: physicochemical
Conditions: for primary degradation pathway: LC-MS; for stability in BT5933 glass vials relative to COP vials: diluted with PBS buffer
Experimental: Stock MC3 lipidic solutions were prepared by dissolving MC3 in an ethanolic solution to a final concentration of 4 mg/mL (e.g., 6 mM). Similarly, stock lipidic DOTAP solutions were prepared by dissolving DOTAP in an ethanolic solution to a final concentration of 4 mg/mL. Stock solutions of phosphate buffered saline (1×, pH 7.4) were used. Final lipidic solutions were prepared by mixing PBS stock to the lipidic stock in a ratio of 3:1 (e.g., PBS stock:DOTAP stock in ethanol=3:1; PBS stock:MC3 stock in ethanol=3:1). Solutions were stored in either glass (BT5933) or polymer (COP) vials.
Dilute lipidic solutions were frozen at −70° C. before being thawed and stored at either 5° C., 25° C., or 40° C. for either 1 week, 2 weeks, or 4 weeks. At each timepoint, (e.g., after 1 week, 2 weeks, or 4 weeks) the lipid solution was analyzed via LC-MS to determine the extent of hydrolysis and/or oxidation present.
MC3 and DOTAP lipids were prepared using either PBS or Histidine buffers. Ethanolic stock solutions of MC3 and DOTAP were prepared as described in Example 1. PBS-based solutions were prepared by diluting the stock lipid solutions, respectively, by 3:1 (PBS:lipid in ethanol (vol/vol)) using 1× PBS, pH 7.4. Histidine-based solutions were also prepared by diluting the stock lipidic solution by 3:1 (histidine:lipid in ethanol vol/vol) using a histidine buffer (10 mM, pH 6.0). Solutions were filled into BT5933, COP, or Valor glass vials at 1 mL aliquots and put on stability. Initial control samples were immediately frozen at −70° C.
Filled vials were stored at either 5° C., 25° C., or 40° C. for either 1 week, 2 weeks, or 4 weeks. At each timepoint, (e.g., after 1 week, 2 weeks, or 4 weeks) the lipid solution was analyzed via LC-MS to determine the extent of hydrolysis and/or oxidation present.

[1] = diluted in 1X PBS pH 7.4, 5, 25, 40° C., 1, 2, 4 weeks
[2] = histidine buffer (10 mM, pH 6.0) vs PBS, 5, 25, 40° C., 1-4 weeks

CCCCCCCC/C=C\CCCCCCCC(=O)OCC(C[N+](C)(C)C)OC(=O)CCCCCCC/C=C\CCCCCCCC (stereo not drawn) [DOTAP, 1,2-dioleoyl-3-trimethylammonium-propane]
% lipid intact [1]: decreased with increasing storage time | primary degradation pathway (diluted in 1X PBS pH 7.4): hydrolysis | stability in BT5933 glass vials relative to COP vials: better stability | % hydrolysis [2]: decreased the % hydrolysis of DOTAP relative to storage in PBS | % lipid intact [2]: stabilized the % DOTAP intact at all storage conditions tested

CCCCC/C=C\C/C=C\CCCCCCCCC(CCCCCCCC/C=C\C/C=C\CCCCC)OC(=O)CCCN(C)C [MC3, 4-(dimethylamino)-butanoic acid, (10Z,13Z)-1-(9Z,12Z)-9,12-octadecadien-1-yl-10,13-nonadecadien-1-yl ester]
% lipid intact [1]: lower than the % DOTAP for the same time points | primary degradation pathway (diluted in 1X PBS pH 7.4): oxidation | stability in BT5933 glass vials relative to COP vials: improved stability relative to COP vials | % hydrolysis [2]: significantly reduced lipid hydrolysis of MC3 | % lipid intact [2]: increasing the % MC3 intact at all storage conditions tested | degree of oxidation [2]: reduced the degree of oxidation | oxidation rate (storage in Valor glass vials vs other vials): lower oxidation rate
